Measurements reported in patent publication US8304394B2, “Low side effect pharmaceutical composition containing isoniazid” (priority 2008, dated 2012).

Columns and labels:
CYP2E1 [1] = molecular target: T1, CYP2E1 (Homo sapiens, UniProt P05181); assay: in vitro; conditions: for inhibition at 40 min, 33 µM: pH 7.4; for inhibition at 40 min, 16.5 µM / inhibition at 40 min, 66 µM: pH 7.4, Inhibition of CYP 2E1 (%); for inhibition at 40 min, 16.5 µM: tested concentration 16.5 μM; for inhibition at 40 min, 66 µM: tested concentration 66 μM
CYP2E1 [2] = molecular target: T1, CYP2E1; assay: Chlorzoxazone hydroxylation inhibition (6-OH-CZX by LC/MS/MS); conditions: human, microsomes, pH 7.4
[3] = molecular target: human liver microsomal cytochrome P450 2E1 (CYP2E1) (Homo sapiens, UniProt P05181); assay: as above
Sequence of human liver microsomal cytochrome P450 2E1 (CYP2E1) (P05181 whole entry): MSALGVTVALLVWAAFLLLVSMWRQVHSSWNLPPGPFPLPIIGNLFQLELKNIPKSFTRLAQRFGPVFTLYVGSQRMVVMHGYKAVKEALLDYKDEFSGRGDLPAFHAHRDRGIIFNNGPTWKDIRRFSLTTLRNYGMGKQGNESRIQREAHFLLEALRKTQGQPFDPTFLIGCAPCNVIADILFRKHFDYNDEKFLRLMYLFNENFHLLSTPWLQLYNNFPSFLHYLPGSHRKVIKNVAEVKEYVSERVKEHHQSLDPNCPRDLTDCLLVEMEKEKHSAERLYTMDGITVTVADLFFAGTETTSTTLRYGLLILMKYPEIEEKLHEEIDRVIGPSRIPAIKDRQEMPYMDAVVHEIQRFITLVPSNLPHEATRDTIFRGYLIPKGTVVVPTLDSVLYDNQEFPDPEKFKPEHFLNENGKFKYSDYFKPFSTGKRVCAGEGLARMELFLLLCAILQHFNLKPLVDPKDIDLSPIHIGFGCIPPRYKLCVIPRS

T1 sequence (P05181 whole entry): as above

Row | Compound | inhibition at 40 min, 33 µM (CYP2E1 [1]) | inhibition at 40 min, 16.5 µM (CYP2E1 [1]) | inhibition at 40 min, 66 µM (CYP2E1 [1]) | inhibition at 30 min, 16.5 µM (CYP2E1 [2]) | inhibition at 30 min, 33 µM (CYP2E1 [2]) | inhibition at 30 min, 66 µM (CYP2E1 [2]) | Inhibition of CYP 2E1 (%) ([3]; tested concentration 16.5 μM) | Inhibition of CYP 2E1 (%) ([3]; tested concentration 33 μM) | Inhibition of CYP 2E1 (%) ([3]; tested concentration 66 μM)
1 | CCCCCCCCCCCC1=C(O)C(=O)C=C(O)C1=O [Embelin] | 12.3 ± 10.2% | 5.95 ± 7.48% | 13.5 ± 11.6% | – | – | – | – | – | –
2 | COc1ccc([C@@H]2CC(=O)c3c(O)cc(O)cc3O2)cc1O [Hesperetin] | 43.3 ± 0.82% | 32.1 ± 5.8% | 54.8 ± 1.37% | 25.7 ± 2.45% | 34.3 ± 2.03% | 44.6 ± 2.35% | – | – | –
3 | O=C1C[C@@H](c2ccc(O)cc2)Oc2cc(O)cc(O)c21 [Naringenin] | 36.8 ± 3.97% | 25.1 ± 7.6% | 41.8 ± 3.51% | 19.5 ± 2.02% | 28.4 ± 2.21% | 45.2 ± 4.43% | – | – | –
4 | O=C(CCc1ccc(O)cc1)c1c(O)cc(O)cc1O [Phloretin] | 54.7 ± 2.84% | 42 ± 3.63% | 66.8 ± 4.79% | 29.6 ± 3.21% | 39.8 ± 3.28% | 50.9 ± 2.09% | – | – | –
5 | O=c1cc(-c2ccc(O)cc2)oc2cc(O)cc(O)c12 [Apigenin] | – | – | – | 28.9 ± 1.54% | 36.8 ± 1.98% | 47.5 ± 3.66% | – | – | –
6 | COc1ccc(-c2oc3cc(O)cc(O)c3c(=O)c2O)cc1O [Tamarixetin] | – | – | – | 37.4 ± 1.96% | 47.8 ± 2.81% | 50.9 ± 3.12% | – | – | –
7 | COc1ccc([C@@H]2CC(=O)c3c(O)cc(O[C@@H]4O[C@H](CO)[C@@H](O)[C@H](O)[C@H]4O[C@@H]4O[C@@H](C)[C@H](O)[C@@H](O)[C@H]4O)cc3O2)cc1O [Neohesperidin] | – | – | – | – | – | – | 42.81 ± 1.75% | 48.96 ± 2.37% | 58.70 ± 1.06%
8 | O=c1c(O)c(-c2ccc(O)cc2O)oc2cc(O)cc(O)c12 [Morin] | – | – | – | 36.9 ± 1.56% | 52.1 ± 1.7% | 60.3 ± 1.56% | – | – | –
9 | O=c1cc(-c2ccccc2)oc2cc(O)c(O)c(O)c12 [Baicalein] | – | – | – | 35.3 ± 1.51% | 47.8 ± 3.4% | 50.1 ± 5.11% | – | – | –
10 | O=c1c(-c2ccc(O)cc2)coc2cc(O)cc(O)c12 [Genistein] | – | – | – | 43.9 ± 2.06% | 30.9 ± 1.62% | 36.9 ± 1.56% | – | – | –
11 | Oc1cc(O)c2c(c1)O[C@@H](c1ccc(O)c(O)c1)[C@@H](O)C2 [(+)-Epicatechin] | – | – | – | – | – | – | 66.71 ± 1.79% | 52.32 ± 1.59% | –
12 | O=C(CCc1ccc(O)cc1)c1c(O)cc(O)cc1O[C@@H]1O[C@H](CO)[C@@H](O)[C@H](O)[C@H]1O [Phloridzin] | 3.76 ± 3.58% | 1.25 ± 7.9% | 1.42 ± 9.28% | – | – | – | – | – | –
13 | O=C(O)[C@H]1O[C@@H](Oc2cc3oc(-c4ccccc4)cc(=O)c3c(O)c2O)[C@H](O)[C@@H](O)[C@@H]1O [Baicalin] | – | – | – | 22.5 ± 2.24% | 35.6 ± 3.09% | 49.3 ± 2.26% | – | – | –
14 | C=CC(=C)CCC=C(C)C [β-Myrcene] | – | – | – | 53.4 ± 4.93% | 75.5 ± 2.14% | 76.5 ± 2.18% | – | – | –
15 | C=C(C)C1CC=C(C)CC1 (single isomer, unassigned; (+)) [(+)-Limonene] | – | – | – | – | – | – | 13.77 ± 1.96% | 38.05 ± 1.95% | 63.64 ± 2.74%
16 | C[C@@H]1O[C@@H](OC[C@H]2O[C@@H](Oc3c(-c4ccc(O)c(O)c4)oc4cc(O)cc(O)c4c3=O)[C@H](O)[C@@H](O)[C@@H]2O)[C@H](O)[C@H](O)[C@H]1O [Rutin] | – | – | – | 30 ± 0.81% | 30.1 ± 1.62% | 43.5 ± 3.09% | – | – | –
17 | (−)-Epicatechin-3-gallate | – | – | – | – | – | – | 30.31 ± 1.27% | 34.84 ± 1.72% | 42.92 ± 0.65%
18 | O=c1cc(-c2ccc(O)c(O)c2)oc2cc(O[C@@H]3O[C@H](CO)[C@@H](O)[C@H](O)[C@H]3O)cc(O)c12 [Luteolin-7-Glucoside] | – | – | – | – | – | – | 42.96 ± 5.10% | 55.87 ± 0.67% | 60.26 ± 1.11%
19 | O=c1cc(-c2ccc(O)c(O)c2)oc2cc(O)cc(O)c12 [Luteolin] | – | – | – | 39.1 ± 3.42% | 43.4 ± 4.74% | 53.2 ± 1.78% | – | – | –

Row | Compound | inhibition at 40 min, 33 µM (CYP2E1 [1]) | inhibition at 40 min, 16.5 µM (CYP2E1 [1]) | inhibition at 40 min, 66 µM (CYP2E1 [1]) | inhibition at 30 min, 16.5 µM (CYP2E1 [2]) | inhibition at 30 min, 33 µM (CYP2E1 [2]) | inhibition at 30 min, 66 µM (CYP2E1 [2]) | Inhibition of CYP 2E1 (%) ([3]; tested concentration 16.5 μM) | Inhibition of CYP 2E1 (%) ([3]; tested concentration 33 μM) | Inhibition of CYP 2E1 (%) ([3]; tested concentration 66 μM)
20 | O=c1c(O)c(-c2ccc(O)cc2)oc2cc(O)cc(O)c12 [Kaempferol] | 70 ± 3.75% | 71.9 ± 1.14% | 70.6 ± 2.53% | 66.5 ± 1.71% | 74.74 ± 0.6% | 79.25 ± 0.27% | – | – | –
21 | COc1ccc(-c2cc(=O)c3c(O)cc(O[C@@H]4O[C@H](CO[C@@H]5O[C@@H](C)[C@H](O)[C@@H](O)[C@H]5O)[C@@H](O)[C@H](O)[C@H]4O)cc3o2)cc1O [Diosmin] | – | – | – | 60 ± 1.96% | 43.1 ± 3.57% | 21.6 ± 1.19% | – | – | –
22 | O=c1c(O)c(-c2ccc(O)c(O)c2)oc2cc(O)cc(O)c12 [Quercetin] | – | – | – | 46.4 ± 4.68% | 53 ± 2.17% | 73.3 ± 1.57% | – | – | –
23 | O=C(O)c1ccc(O)c(O)c1 [Protocatechuic acid] | 19.9 ± 8.95% | 25.7 ± 12.7% | 22.8 ± 4.07% | – | – | – | – | – | –
24 | O=c1c(O[C@@H]2O[C@H](CO)[C@H](O)[C@H](O)[C@H]2O)c(-c2ccc(O)c(O)c2)oc2cc(O)cc(O)c12 [Hyperoside] | – | – | – | -24.2 ± 1.19% | 35.6 ± 3.68% | 53.5 ± 1.2% | – | – | –
25 | O=C1c2c(O)cc(O)cc2O[C@H](c2ccc(O)c(O)c2)[C@H]1O [(+)-Taxifolin] | – | 22.6 ± 11.7% | 34.5 ± 3.47% | – | – | – | – | – | –
26 | O=C(O)c1cc(O)c(O)c(O)c1 [gallic acid] | 42.7 ± 7.36% | 35.6 ± 10% | 48.2 ± 4.2% | 10.5 ± 1.12% | 18.8 ± 2.03% | 28 ± 1.56% | – | – | –
27 | O=c1cc(-c2ccc(O)cc2)oc2c([C@@H]3O[C@H](CO)[C@@H](O)[C@H](O)[C@H]3O)c(O)cc(O)c12 [Vitexin] | – | – | – | 23.1 ± 1.19% | 30.6 ± 0.78% | 38.7 ± 1.62% | – | – | –
28 | O=c1c(O)c(-c2cc(O)c(O)c(O)c2)oc2cc(O)cc(O)c12 [Myricetin] | – | – | – | 42.2 ± 2.55% | 59.2 ± 1.27% | 61.6 ± 0.88% | – | – | –
29 | COc1cc(C2Oc3cc([C@H]4Oc5cc(O)cc(O)c5C(=O)[C@@H]4O)ccc3OC2CO)ccc1O (stereo partly shown) [Silybin] | – | – | – | 59.5 ± 2.34% | 37.1 ± 1.15% | 39 ± 1.19% | – | – | –
30 | O=c1c(-c2ccc(O)cc2)coc2cc(O)ccc12 [Daidzein] | – | – | – | 73.5 ± 1.74% | 76.3 ± 2.28% | 86.8 ± 1.04% | – | – | –
31 | O=c1c(-c2ccc(O)cc2)coc2c([C@@H]3O[C@H](CO)[C@@H](O)[C@H](O)[C@H]3O)c(O)ccc12 [Puerarin] | -4.64 ± 3.47% | 0.43 ± 2.31% | -12.9 ± 2.75% | – | – | – | – | – | –
32 | O=c1cc(-c2ccc(O)cc2)oc2cc(O)c([C@@H]3O[C@H](CO)[C@@H](O)[C@H](O)[C@H]3O)c(O)c12 [Isovitexin] | – | – | – | 59.8 ± 1.41% | 67.6 ± 3.24% | 81.8 ± 1.34% | – | – | –
33 | O=C/C=C/c1ccccc1 [Trans-Cinnamaldehyde] | – | – | – | 60.8 ± 3% | 89.6 ± 1.52% | 92.81 ± 0.53% | – | – | –
34 | C[C@@H]1O[C@@H](Oc2c(-c3ccc(O)c(O)c3)oc3cc(O)cc(O)c3c2=O)[C@H](O)[C@H](O)[C@H]1O [Quercitrin] | – | – | – | 33.5 ± 4.29% | 53.8 ± 3.51% | 61 ± 5.88% | – | – | –
35 | CCCCCCCCCCCCCC(=O)OCC [Ethyl Myristate] | – | – | – | 22.1 ± 0.78% | 41 ± 4.76% | 52 ± 2.38% | – | – | –
36 | COc1cc(-c2oc3cc(O)cc(O)c3c(=O)c2O)ccc1O [Isorhamnetin] | – | – | – | 12.1 ± 1.06% | 18.7 ± 1.22% | 36.3 ± 1.59% | – | – | –
37 | O=C(O)/C=C/c1ccccc1 [trans-Cinnamic acid] | 4.66 ± 6.5% | 5.71 ± 10.5% | 7.1 ± 6.95% | – | – | – | – | – | –
